Measured values published in patent publication US10913972B2, “5,5-disubstituted luciferins and their use in luciferase-based assays” (Promega Corporation, priority 2016, dated 2021).
Entries after “also recorded” stand apart in the source; their conditions may differ.

Tests used:
UltraGlo luciferase = experiment: RLU of 5,5-disubstituted luciferin analogs normalized to racemic luciferins (Table 1); type: biochemical; settings: normalized to 1 mM racemic luciferins under identical conditions
Protocol: Further tests were conducted at various substrate concentrations in the presence of sub-saturating D-Luciferin as a means to compare the binding affinity of the substrates. Solutions of 0.005 mg/ml Click Beetle-Green luciferase (CBG) or UltraGlo luciferase were prepared in Bright-Glo™ assay buffer (Promega E263A) with 3 mM ATP. A 2 mM solution of each substrate was then prepared in water containing D-Luciferin (sub-saturating). Each substrate+D-Luciferin was two-fold serially diluted in luciferin free water. A sample of 50 μL of each substrate dilution was combined with 50 μL of the enzyme solution. Samples were incubated at room temperature for one minute, and luminescence was measured on a GLOMAX® Multi+ plate luminometer. […] (FIG. 5A-F). RLU values for certain representative compounds (normalized to racemic luciferins under identical conditions) are provided in Table 1 above. For certain representatative compounds, substrate titration tests were performed using procedures as described herein without comparison to luciferins, therefore providing RLU values not normalized to those of luciferins.
(§1) To determine if luciferin analogs with substitutions at the 5,5 position could be substrates for UltraGlo™ luciferase, tests were performed with analogs containing various di-substitutions of alkyl groups and closed ring structures in luminescence assays. A solution of 0.005 mg/ml UltraGlo™ luciferase (Promega Corp) prepared in 1×TBS+1% Prionex was combined with 0.5 mM ATP in Bright-Glo™ assay buffer (Promega E263A). All substrates were diluted separately in DMSO to 20 mM. After a 30-minute incubation at room temperature, diluted substrate was added to 1 mM final concentration in the reaction and mixed by pipetting. Reactions were further incubated at room temperature for 1 minute, and luminescence measured on a GLOMAX® Multi+ plate luminometer.

[1] = Thermal stability of luciferin stock solutions at 60° C. by RP-HPLC; settings: stock solution pH=6.0, 7.0 mM; for Thermal stability (decomposition in solution): detergents, ULTRA-GLO luciferase 0.1 mg/mL
[2] = tested on: firefly or click beetle luciferases; settings: Branchini et al., J. Am. Chem. Soc. 2002; cited from earlier work
UltraGlo™ luciferase = experiment: Luminescence assay of 5,5-substituted analogs as substrates for UltraGlo™ luciferase (FIG. 7); type: biochemical; settings: 1 mM substrate, 0.005 mg/ml enzyme, 0.5 mM ATP, 1 minute at room temperature
Protocol: as §1

ULTRA-GLO™ luciferase = experiment: Inhibition of luciferase activity by dehydroluciferins; type: biochemical; settings: titrated from 0.25 mM in 0.25 mM racemic luciferin, 0.1 mM ATP, 1 minute
Protocol: Inhibition of luciferase activity by dehydroluciferins: ULTRA-GLO™ luciferase (Promega, 0.1 mg/mL)+0.1% PRIONEX® in detection reagent buffer was prepared. The solution was divided into 2 portions with 0.25 mM Racemic H-Luciferin added to one portion and 0.25 mM racemic NH2 luciferin to the other portion. H-dehydroluciferin (0.25 mM) was added to an aliquot of the racemic H-Luciferin solution, and NH2-dehydroluciferin (0.25 mM) was added to an aliquot of the racemic NH2 luciferin solution. 2× serial dilutions of each of the dehydroluciferin samples were prepared using the racemic solutions as a diluent (500 μL of dehydroluciferin solution added to 500 μL of ULTRA-GLO™+racemic luciferin). 50 μL of each titration series was then added to […] 0.1 mM ATP. The samples were incubated for 1 minute, and the luminescence was measured on GLOMAX®-Multi+ plate luminometer (n=6).

[3] = tested on: recombinant beetle luciferases; settings: only the D-form; Viviani et al., Biochemistry 2014; cited from earlier work

Row | Structure (SMILES) | RLU% (RLU normalized to the one generated by 1 mM racemic luciferins under identical conditions) (UltraGlo luciferase) [%] | further results
1 | CCCC1(CCC)SC(c2nc3ccc(O)cc3s2)=NC1C(=O)O (stereo not drawn) [CS0427, 2-(6-hydroxybenzo[d]thiazol-2-yl)-5,5-dipropyl-4,5-dihydrothiazole-4-carboxylic acid] | 0.16 | 
2 | O=C(O)C1N=C(c2nc3ccc(O)cc3s2)SC12CCCCCC2 (stereo not drawn) [CS0397, 2-(6-hydroxybenzo[d]thiazol-2-yl)-1-thia-3-azaspiro[4.6]undec-2-ene-4-carboxylic acid] | 0.13 | 
3 | CN1CCC2(CC1)SC(c1nc3ccc(O)cc3s1)=NC2C(=O)O (stereo not drawn) [CS0420, 2-(6-hydroxybenzo[d]thiazol-2-yl)-8-methyl-1-thia-3,8-diazaspiro[4.5]dec-2-ene-4-carboxylic acid] | 0.20 | 
4 | O=C(O)C1N=C(c2nc3ccc(O)cc3s2)SC12CCCC2 (stereo not drawn) [CS0326, 2-(6-hydroxybenzo[d]thiazol-2-yl)-1-thia-3-azaspiro[4.4]non-2-ene-4-carboxylic acid] | 0.43 | 
5 | O=C(O)C1N=C(c2nc3ccc(O)cc3s2)SC12CCOCC2 (stereo not drawn) [CS0439, 2-(6-hydroxybenzo[d]thiazol-2-yl)-8-oxa-1-thia-3-azaspiro[4.5]dec-2-ene-4-carboxylic acid] | 0.09 | 
6 | CCC1(CC)SC(c2nc3ccc(O)cc3s2)=NC1C(=O)O (stereo not drawn) [CS0330, 5,5-diethyl-2-(6-hydroxybenzo[d]thiazol-2-yl)-4,5-dihydrothiazole-4-carboxylic acid] | 0.60 | 
7 | CC1(C)SC(c2nc3ccc(O)cc3s2)=NC1C(=O)O (stereo not drawn) [III-a, 2-(6-hydroxybenzo[d]thiazol-2-yl)-5,5-dimethyl-4,5-dihydrothiazole-4-carboxylic acid] |  | Thermal stability (decomposition in solution) [1]: virtually no decomposition; also recorded: more thermally stable than the unsubstituted luciferin; Light production via luciferase mediated processes [2]: incapable of producing light
8 | O=C(O)C1N=C(c2nc3ccc(O)cc3s2)SC1(Cc1ccccc1)Cc1ccccc1 (stereo not drawn) [CS0396, 5,5-dibenzyl-2-(6-hydroxybenzo[d]thiazol-2-yl)-4,5-dihydrothiazole-4-carboxylic acid] | 1.0 | Luminescence as substrate (UltraGlo™ luciferase): measurable luminescence values
9 | CCC1(CC)SC(c2nc3cc(F)c(O)cc3s2)=NC1C(=O)O (stereo not drawn) [CS0388, 5,5-diethyl-2-(5-fluoro-6-hydroxybenzo[d]thiazol-2-yl)-4,5-dihydrothiazole-4-carboxylic acid] | 0.64 | Luminescence as substrate (UltraGlo™ luciferase): measurable luminescence values
10 | O=C(O)C1N=C(c2nc3cc(F)c(O)cc3s2)SC12CCCCC2 (stereo not drawn) [CS0392, 2-(5-fluoro-6-hydroxybenzo[d]thiazol-2-yl)-1-thia-3-azaspiro[4.5]dec-2-ene-4-carboxylic acid] | 0.13 | Luminescence as substrate (UltraGlo™ luciferase): measurable luminescence values
11 | Nc1ccc2nc(-c3nc(C(=O)O)cs3)sc2c1 [NH2-dehydroluciferin] |  | Inhibition of luciferase activity (ULTRA-GLO™ luciferase): potent inhibitors
12 | O=C(O)[C@H]1CSC(c2nc3ccc(O)cc3s2)=N1 [unsubstituted luciferin] |  | Thermal stability (decomposition in solution) [1]: significant decomposition; Major degradation product ([1]; with or without ULTRA-GLO luciferase): dehydroluciferin
13 | O=C(O)C1N=C(c2nc3ccc(O)cc3s2)SC12CCCCC2 (stereo not drawn) [CS0325, 2-(6-hydroxybenzo[d]thiazol-2-yl)-1-thia-3-azaspiro[4.5]dec-2-ene-4-carboxylic acid] | 0.22 | 
14 | CC1(C)SC(c2nc3ccc(N)cc3s2)=NC1C(=O)O (stereo not drawn) [III-b, 2-(6-aminobenzo[d]thiazol-2-yl)-5,5-dimethyl-4,5-dihydrothiazole-4-carboxylic acid] |  | Thermal stability (decomposition in solution) [1]: virtually no decomposition; also recorded: more thermally stable than the unsubstituted luciferin; Light production [3]: produce light
15 | O=C(O)C1N=C(c2nc3ccc(O)cc3s2)SC12CC2 (stereo not drawn) [CS0333, 5-(6-hydroxybenzo[d]thiazol-2-yl)-4-thia-6-azaspiro[2.4]hept-5-ene-7-carboxylic acid] | 0.27 | 
16 | O=C(O)c1csc(-c2nc3ccc(O)cc3s2)n1 [H-dehydroluciferin] |  | Inhibition of luciferase activity (ULTRA-GLO™ luciferase): potent inhibitors
17 | CC1CCC2(CC1)SC(c1nc3ccc(O)cc3s1)=NC2C(=O)O (stereo not drawn) [CS0404, 2-(6-hydroxybenzo[d]thiazol-2-yl)-8-methyl-1-thia-3-azaspiro[4.5]dec-2-ene-4-carboxylic acid] | 0.31 | 
18 | O=C(O)C1N=C(c2nc3ccc(O)cc3s2)SC12CCC2 (stereo not drawn) [CS0329, 6-(6-hydroxybenzo[d]thiazol-2-yl)-5-thia-7-azaspiro[3.4]oct-6-ene-8-carboxylic acid] | 0.29 | 
